Values after ≈ are worked out from the molar mass of the structure shown. Structures can show the parent of a compound that is named as a salt.
Key:
Solubility test Method 1 = type: physicochemical; settings: Method 1: 30% propylene glycol in water, shaked 72 hours at room temperature
Experimental: Sample solutions (around 16.7 mg/ml) in propylene glycol were diluted with water (30% propylene glycol). Then, samples were shaked for 72 hours at room temperature. After shaking period, samples were centrifuged, then the liquid phase was filtered and analyzed using HPLC coupled to UV detection. To determine the actual concentration a 5-point calibration curve was established.

Mcl-1 protein = Mcl-1 protein (Homo sapiens, UniProt Q07820); experiment: Inhibition of Mcl-1 by the fluorescence polarisation technique; type: binding; settings: fluorescence polarisation test; read-out: IC50 (M) Mcl-LFP
Experimental: The relative, binding potency of each compound was determined via Fluorescence Polarisation (FP). The method utilised a Fluorescein labelled ligand (Fluorescein-βAla-Ahx-A-REIGAQLRRMADDLNAQY-OH; mw 2,765) which binds to the Mcl-1 protein (such that Mcl-1 corresponds to the UniProtKB® primary accession number: Q07820) leading to an increased anisotropy measured in milli-polarisation (mP) units using a reader. The addition of a compound which binds competitively to the same site as the ligand will result in a greater proportion of unbound ligand in the system indicated by a decrease in mP units.
An 11 point serial dilution of each compound was prepared in DMSO and 2 μl transferred into flat bottomed, low binding, 384-well plate (final DMSO concentration 5%), 38 μl of buffer (10 mM 4-(2-hydroxyethyl)-1-piperazineethanesolfonic acid [HEPES], 150 mM NaCl, 0.05% Tween 20, pH 7.4), containing the Fluorescein labelled ligand (final concentration 1 nM) and Mcl-1 protein (final concentration 5 nM) was then added.
Assay plates were incubated ˜2 hours at room temperature before FP was measured on a […] Synergy2 reader (Ex. 528 nm, Em. 640 nm, Cut off 510 nm) and mP units calculated. The binding of increasing doses of test compound was expressed as a percentage reduction in mP compared to a window established between ‘5% DMSO only’ and ‘100% inhibition’ controls. 11-point dose response curves were plotted with XL-Fit software using a 4-Parameter Logistic Model (Sigmoidal Dose-Response Model) and the inhibitory concentrations that gave a 50% reduction in mP (IC50) were determined.

[1] = tested on: H929 multiple myeloma tumour line; experiment: In vitro cytotoxicity (MTT); type: cell-based; settings: 48 hours exposure
Experimental: The cytotoxicity studies were carried out on the H929 multiple myeloma tumour line.
The cells are distributed onto microplates and exposed to the test compound for 48 hours.
The cell viability is then quantified by a colorimetric assay, the Microculture Tetrazolium Assay (Carmichael et al. Cancer Res. 1987, 47, 936-942).

Solubility test Method 2 = type: physicochemical; settings: Method 2: aqueous phosphate buffer 67.7 mM, pH 7.4, room temperature
Experimental: Samples (40 mg/mL) were diluted in aqueous phosphate buffer (67.7 mM, with pH adjusted at 7.4) used for in vivo studies. Samples were shaked at room temperature, then filtered. The solubilized fraction was quantified by LC-MS-MS analysis.

Mcl-1 protein, sequence (Q07820 whole entry): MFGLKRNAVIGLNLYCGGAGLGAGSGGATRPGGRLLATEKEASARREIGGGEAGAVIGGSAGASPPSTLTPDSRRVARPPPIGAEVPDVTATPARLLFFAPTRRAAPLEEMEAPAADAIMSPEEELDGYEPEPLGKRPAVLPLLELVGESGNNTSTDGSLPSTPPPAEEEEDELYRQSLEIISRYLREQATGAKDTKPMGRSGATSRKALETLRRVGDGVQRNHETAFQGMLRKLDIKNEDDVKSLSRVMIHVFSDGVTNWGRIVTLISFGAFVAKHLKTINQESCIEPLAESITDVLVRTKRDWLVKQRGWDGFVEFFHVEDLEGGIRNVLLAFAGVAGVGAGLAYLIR

Row | IC50 (Mcl-1 protein) [M] | solubility (Solubility test Method 2) [mg/mL] | Compound | solubility (Solubility test Method 1) [µM] | IC50 ([1]; H929 cells) [nM] | IC50 ([1]; Homo sapiens, NCI-H929, H929 cells) [nM]
1 | – | – | COc1ccccc1-c1nccc(COc2ccccc2C[C@@H](Oc2ncnc3sc(-c4ccc(F)cc4)c(-c4ccc(OCCN5CCN(C)CC5)c(Cl)c4C)c23)C(=O)O)n1 [(2R)-2-{[(5Sa)-5-{3-chloro-2-methyl-4-[2-(4-methylpiperazin-1-yl)ethoxy]phenyl}-6-(4-fluorophenyl)thieno[2,3-d]pyrimidin-4-yl]oxy}-3-(2-{[2-(2-methoxyphenyl)pyrimidin-4-yl]methoxy}phenyl)propanoic acid, reference compound] | 63.3 (≈ 55.4 µg/mL) | – | –
2 | 1.06e-09 | > 35 | COc1ccccc1-c1nccc(COc2ccccc2CC(Oc2ncnc3sc(-c4ccc(F)cc4)c(-c4ccc(OCC[N+](C)(C)COP(=O)([O-])O)c(Cl)c4C)c23)C(=O)O)n1 [Example 11, {4-[2-(4-{(5Sa)-4-[(1R)-1-carboxy-2-(2-{[2-(2-methoxyphenyl)pyrimidin-4-yl]methoxy}phenyl)ethoxy]-6-(4-fluorophenyl)thieno[2,3-d]pyrimidin-5-yl}-2-chloro-3-methylphenoxy)ethyl](dimethyl)ammonio}methyl hydrogen phosphate] | – | – | 39.3
3 | 1.77e-09 | – | COc1ccccc1-c1nccc(COc2ccccc2C[C@@H](Oc2ncnc3sc(-c4ccc(F)cc4)c(-c4ccc(OCCN5CC[N+](C)(COC(=O)C(C)(C)C)CC5)c(Cl)c4Br)c23)C(=O)O)n1 [Example 32, 4-[2-(3-bromo-4-{(5Sa)-4-[(1R)-1-carboxy-2-(2-{[2-(2-methoxyphenyl)pyrimidin-4-yl]methoxy}phenyl)ethoxy]-6-(4-fluorophenyl)thieno[2,3-d]pyrimidin-5-yl}-2-chlorophenoxy)ethyl]-1-{[(2,2-dimethylpropanoyl)oxy]methyl}-1-1-methyl piperazin-1-ium trifluoroacetate] | – | 2.11 | –

Row | Compound | IC50 (Mcl-1 protein) [M] | solubility (Solubility test Method 2) [mg/mL] | solubility (Solubility test Method 1) [µM] | IC50 ([1]; H929 cells) [nM] | IC50 ([1]; Homo sapiens, NCI-H929, H929 cells) [nM]
4 | COc1ccccc1-c1nccc(COc2ccccc2C[C@@H](Oc2ncnc3sc(-c4ccc(F)cc4)c(-c4ccc(OCCN5CC[N+](C)(COP(=O)([O-])O)CC5)c(Cl)c4C)c23)C(=O)O)n1 [Example 1, {4-[2-(4-{(5Sa)-4-[(1R)-1-carboxy-2-(2-{[2-(2-methoxyphenyl)pyrimidin-4-yl]methoxy}phenyl)ethoxy]-6-(4-fluorophenyl)thieno[2,3-d]pyrimidin-5-yl}-2-chloro-3-methylphenoxy)ethyl]-1-methylpiperazin-1-ium-1-yl}methyl hydrogen phosphate] | 1.03e-09 | – | ≥ 4907 | 28.4 | –
